Measured values: patent US20130310256A1, “HERBICIDAL COMPOSITIONS COMPRISING 4-AMINO-3-CHLORO-5-FLUORO-6-(4-CHLORO-2-FLUORO-3-METHOXYPHENYL) PYRIDINE-2-CARBOXYLIC ACID OR A DERIVATIVE THEREOF AND VLCFA AND LIPID SYNTHESIS INHIBITING HERBICIDES” (DOW AGROSCIENCES LLC, priority 2008, published 2013)
Several values for one entry are separate records, joined by “and”; a condition that tells them apart may be missing. Equal entries are not always repeated.

Experiments:
LEFCH = assay: Example I: postemergence foliar-applied weed control, greenhouse; type: in vivo, Leptochloa chinensis (L.) Nees (Chinese sprangletop); conditions: for Visual Weed Control (%) - 21 DAA LEFCH Obs / Visual Weed Control (%) - 22 DAA LEFCH Obs / Visual Weed Control (%) - 19 DAA LEFCH Obs: foliar
Outline: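 Plants grown in loam/sandy loam–calcareous grit soil (80:20) in greenhouse, 14 hr photoperiod, about 29° C. day/26° C. night, treated postemergence at first to fourth true leaf stage. Foliar spray at 187 L/ha with 1.25% (v/v) crop oil concentrate; Compound A dosed on acid equivalent basis, partners on active ingredient basis.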

FIMMI = assay: Example II: in-water applied weed control, transplanted paddy rice, greenhouse; type: in vivo, Fimbristylis miliacea (L.) Vahl (globe fringerush); conditions: for Visual Weed Control FIMMI Obs: 19 DAA
Protocol: Weed seeds or nutlets of the desired test plant species were planted in puddled soil (mud) prepared by mixing a shredded, non-sterilized mineral soil (50.5 percent silt, 25.5 percent clay, and 24 percent sand, with a pH of about 7.6 and an organic matter content of about 2.9 percent) and water at a 1:1 volumetric ratio. The prepared mud was dispensed in 365 mL aliquots into 16-ounce (oz.) non-perforated plastic pots with a surface area of 86.59 square centimeters (cm^2) leaving a headspace of 3 centimeters (cm) in each pot. Mud was allowed to dry overnight prior to planting or transplanting. Rice seeds were planted in Sun Gro MetroMix® 306 planting mixture, which typically has a pH of 6.0 to 6.8 and an organic matter content of about 30 percent, in plastic plug trays. Seedlings at the second or third leaf stage of growth were transplanted into 840 mL of mud contained in 32-oz. non-perforated plastic pots with a surface area of 86.59 cm^2 4 days prior to herbicide application. The paddy was created by filling the headspace of the pots with 2.5 to 3 cm of water. When required to ensure good germination and healthy plants, a fungicide treatment and/or other chemical or physical treatment was applied. The plants were grown for 4-22 days in a greenhouse with an approximate 14 hr photoperiod which was maintained at about 29′C during the day and 26° C. during the night. Nutrients were added as Osmocote® (19:6:12, N:P:K+ minor nutrients) at 2 g per 16-oz. pot and 4 g per 32-oz. pot. Water was added on a regular basis to maintain the paddy flood, and supplemental lighting was provided with overhead metal halide 1000-Watt lamps as necessary. The plants were employed for testing when they reached the first through fourth true leaf stage.
Treatments consisted of the acid or esters of 4-amino-3-chloro-5-fluoro-6-(4-chloro-2-fluoro-3-methoxy-phenyl)pyridine-2-carboxylic acid (compound A) each formulated as an SC (suspension concentrate) and various herbicidal components alone and in combination. Forms of compound A were applied on an acid equivalent basis.
The herbicidal components were applied on an active ingredient basis and included very long chain fatty acid (VLCFA) synthesis-inhibiting and fatty acid/lipid synthesis-inhibiting herbicides acetochlor (technical grade material), acetochlor+dichlormid formulateded as Topnotch®, pretilachlor (technical grade material), butachlor formulated as Butachlor EC, fentrazamide formulated as Fentrazamide EC, thiobencarb formulated as Bolero® 8EC, cafenstrole formulated as Himeadow® WP or Lapost® Flowable, benfuresate formulated as Full Shot®, anilofos (technical grade material), mefenacet (technical grade material), molinate (technical grade material), and thenylchlor (technical grade material).
Treatment requirements for each compound or herbicidal component were calculated based upon the rates being tested, the concentration of active ingredient or acid equivalent in the formulation, an application volume of 2 mL per component per pot, and an application area of 86.59 cm^2 per pot.
For formulated compounds, a measured amount was placed in an individual 100 or 200 mL glass vial and was dissolved in a volume of 1.25% (v/v) Agri-Dex® crop oil concentrate to obtain application solutions.
For technical grade compounds, a weighed amount was placed in an individual 100 to 200 mL glass vial and was dissolved in a volume of acetone to obtain concentrated stock solutions. […] The concentrated stock solutions obtained were diluted with an equivalent volume of an aqueous mixture containing 2.5% (v/v) crop oil concentrate so that the final application solutions contained 1.25% (v/v) crop oil concentrate.
Applications were made by injecting with a pipetter appropriate amounts of the application solutions, individually and sequentially, into the aqueous layer of the paddy. Control plants were treated in the same manner with the solvent blank. […]

CCN(CC)C(=O)n1cnc(S(=O)(=O)c2c(C)cc(C)cc2C)n1 [Cafenstrole, N,N-diethyl-3-[(2,4,6-trimethylphenyl)sulfonyl]-1H-1,2,4-triazole-1-carboxamide]
Visual Weed Control Obs (LEFCH; 20 DAA, 26.25 gai/ha Himeadow WP): 0%
Visual Weed Control Obs (LEFCH; 20 DAA, 52.5 gai/ha Himeadow WP): 0%
Visual Weed Control Obs (LEFCH; 20 DAA, 105 gai/ha Himeadow WP): 0%
Visual Weed Control Obs (LEFCH; 21 DAA, 210 gai/ha Lapost Flowable): 23%

COc1c(Cl)ccc(-c2nc(C(=O)OCc3ccccc3)c(Cl)c(N)c2F)c1F [Compound A Benzyl Ester, benzyl ester of 4-amino-3-chloro-5-fluoro-6-(4-chloro-2-fluoro-3-methoxy-phenyl)pyridine-2-carboxylic acid]
Visual Weed Control (%) - 21 DAA LEFCH Obs (LEFCH; 5.3 gae/ha): 0%
Visual Weed Control (%) - 21 DAA LEFCH Obs (LEFCH; 8 gae/ha): 20%
Visual Weed Control (%) - 22 DAA LEFCH Obs (LEFCH; 8 gae/ha): 35%
Visual Weed Control (%) - 21 DAA LEFCH Obs (LEFCH; 10.6 gae/ha): 20%
Visual Weed Control (%) - 19 DAA LEFCH Obs (LEFCH; 16 gae/ha): 45%
Visual Weed Control (%) - 22 DAA LEFCH Obs (LEFCH; 16 gae/ha): 40%
Visual Weed Control Obs (LEFCH; 20 DAA, 17.5 gae/ha): 50% and 25%
Visual Weed Control (%) - 21 DAA LEFCH Obs (LEFCH; 21.2 gae/ha): 35%
Visual Weed Control (%) - 19 DAA LEFCH Obs (LEFCH; 32 gae/ha): 50%
Visual Weed Control (%) - 20 DAA FIMMI Obs (FIMMI; 4.38 gae/ha): 30%
Visual Weed Control FIMMI Obs (FIMMI; 8 gae/ha): 0%
Visual Weed Control (%) - 20 DAA FIMMI Obs (FIMMI; 8.75 gae/ha): 60%
Visual Weed Control FIMMI Obs (FIMMI; 16 gae/ha): 0%
Visual Weed Control FIMMI Obs (FIMMI; 32 gae/ha): 85%

CCCOCCN(C(=O)CCl)c1c(CC)cccc1CC [Pretilachlor, 2-chloro-N-(2,6-diethylphenyl)-N-(2-propoxyethyl)acetamide]
Visual Weed Control (%) - 20 DAA FIMMI Obs (FIMMI; 75 gai/ha): 40%
Visual Weed Control (%) - 20 DAA FIMMI Obs (FIMMI; 150 gai/ha): 45%

CCS(=O)(=O)Oc1ccc2c(c1)C(C)(C)CO2 [Benfuresate, 2,3-dihydro-3,3-dimethyl-5-benzofuranyl ethanesulfonate]
Visual Weed Control (%) - 21 DAA LEFCH Obs (LEFCH; 75 gai/ha): 0%
Visual Weed Control (%) - 21 DAA LEFCH Obs (LEFCH; 150 gai/ha): 10%
Visual Weed Control (%) - 21 DAA LEFCH Obs (LEFCH; 300 gai/ha): 10%
Visual Weed Control (%) - 22 DAA LEFCH Obs (LEFCH; 300 gai/ha): 10%

COc1c(Cl)ccc(-c2nc(C(=O)O)c(Cl)c(N)c2F)c1F [Compound A Acid, 4-amino-3-chloro-6-(4-chloro-2-fluoro-3-methoxyphenyl)-5-fluoropyridine-2-carboxylic acid]
Visual Weed Control (%) - 22 DAA LEFCH Obs (LEFCH; 10.6 gae/ha): 10%
Visual Weed Control Obs (LEFCH; 20 DAA, 17.5 gae/ha): 30% and 50%
Visual Weed Control Obs (LEFCH; 21 DAA, 17.5 gae/ha): 20%
Visual Weed Control Obs (LEFCH; 21 DAA, 35 gae/ha): 45%
Visual Weed Control (%) - 22 DAA LEFCH Obs (LEFCH; 21.2 gae/ha): 10%
Visual Weed Control (%) - 20 DAA FIMMI Obs (FIMMI; 8.75 gae/ha): 50%
